Read-outs that look alike come from different tables or passages of the source.
Key:
[1] = Pharmacokinetics after oral gavage in rats (plasma and brain); format: in vivo, Wistar Han rats; details: for AUC(0-t): read-out: AUC(0–24h)
Procedure: The study was carried out in 40 male Wistar Han rats (∼10 weeks; Tri-City Academic Laboratory Animal Centre, Research and Services Centre, Medical University of Gdansk). Rats were fasted for 12 h (water was available at libitum) before administration and fed 4 h post-dose. Rats received CPL500036 (3 mg/kg per oral gavage). At each of eight time points (15 min, 30 min as well as 1 h, 2 h, 4 h, 7 h, 12 h, and 24 h), five rats were killed by exsanguination, and samples of blood and brain were harvested. Two male and two female Beagle dogs (10.5–13 months old, MediTox s.r.o., Konarovice, Czech Republic) received CPL500036 in a dose of 1.5 mg/kg per oral gavage. Blood was taken by venepuncture from v. cephalica antebrachii at twelve time points (0 min, 15 min, 30 min as well as 1 h, 2 h, 3 h, 4 h, 6 h, 8 h, 12 h, 24 h, and 48 h.
Blood was collected into tubes containing the anticoagulant K2EDTA and centrifuged (2,000 × g, 15 min, 4°C) to obtain plasma. Brain samples were homogenized in water. Plasma and brain homogenates were stored at −80°C until analyses. Acetonitrile (150 μl) spiked with internal standard (donepezil; MilliporeSigma) was added to 50 μl of each plasma homogenate or brain homogenate, respectively. The mixture was shaken vigorously for 2 min and then centrifuged (4,000 × g, 4 min, room temperature). Supernatants were injected into a high-performance liquid chromatography system (Infinity™ 1,260; Agilent Technologies, Santa Clara, CA, United States) with a Zorbax SB column ([…]; 1.8 μm; Agilent Technologies). The mobile phase was ammonium formate (20 mM, pH 3.0) and acetonitrile with 0.1% formic acid. The gradient chromatographic separation used a flow rate of 0.4 ml/min for 7.5 min at a nominal temperature of 30°C. Signal acquisition was undertaken for 5.5 min using of a triple quadrupole mass spectrometer (6,460 series; Agilent Technologies) with electrospray ionization (5500 V, 320°C). Multiple-reaction monitoring was applied to detect the following transitions of the m/z ratio: 342.0–220.9 and 342–235.9 for CPL500036; 380.5–362.9 and 380.5–243.5 for donepezil. The drug concentration was calculated from the ratio of the peak area response relative to the internal standard using a standard curve.

[2] = test system: psychosis animal models; set-up: method as in manuscript in preparation; details: ref manuscript in preparation; cited from earlier work
[3] = target: T1, muscarinic acetylcholine receptor type 2 (Homo sapiens, UniProt P08172); assay: SafetyScreen44 radioligand binding (antagonistic radioligand assay); details: read-out: % Inh (% inhibition of control specific binding)
T1 construct: purchased Eurofins Cerep (SafetyScreen44)
Procedure: The SafetyScreen44® assay was carried out by Eurofins (Poitiers, France) according to the service-provider’s protocol. CPL500036 (1 µM) was tested against a panel of […] potential off-targets proteins, including G protein-coupled receptors (GPCRs), transporters, ion channels, nuclear receptors kinases and other non-kinase enzymes, by use of a set of the binding assays.
(§1) Binding of CPL500036 was calculated as the percent binding inhibition of a radioactively labeled ligand specific for each target. Enzyme inhibition of CPL500036 was calculated as the percent inhibition of the activity of the control enzyme. “No interaction” was denoted if inhibition ≤ 25% of specific binding of the control. Determination of muscarinic acetylcholine receptor (M2) activity induced by CPL500036 (antagonism and agonism) was undertaken in human recombinant CHO cells by measurement of the intracellular cAMP level according to the service-provider’s protocol. IC50 (concentration causing a half-maximal inhibition of specific binding of the control) or EC50 (concentration causing a half-maximal response of specific binding of the control) and the Hill coefficient were determined by non-linear regression analysis of the competition curves generated with mean replicate values using Hill-equation curve fitting with software developed at Cerep (Celle-Lévescault, France).

[4] = test system: unilateral rat model of Parkinson’s disease; set-up: method as in Lenda et al., 2021; details: Parkinson’s disease animal model; ref Lenda et al., 2021; cited from earlier work
[5] = target: T2, M2 muscarinic (human) receptor (Homo sapiens, UniProt P08172); assay: M2 functional assay, intracellular cAMP (HTRF) in CHO cells, agonist and antagonist mode; format: cell-based
T2 construct: host or cells: CHO-K1
Procedure: as §1
Supplementary fig. 1 Assesment of possible allosteric modulation in M2 muscarinic (human) receptor […]
by CPL500036 in CHO cells.
The study was perfomed by Eurofins Cerep (Poitiers, France) according to the service-provider’s protocol. […] Cells were treated for 10 min with CPL500036. cAMP was detected by use of HTRF ( Homogeneous Time Resolved […]

[6] = male, Wistar Han, rat brain, 3 mg/kg oral gavage, mean ± SD
[7] = male, Wistar Han, rat plasma, 3 mg/kg oral gavage, mean ± SD

T2 sequence (P08172 whole entry): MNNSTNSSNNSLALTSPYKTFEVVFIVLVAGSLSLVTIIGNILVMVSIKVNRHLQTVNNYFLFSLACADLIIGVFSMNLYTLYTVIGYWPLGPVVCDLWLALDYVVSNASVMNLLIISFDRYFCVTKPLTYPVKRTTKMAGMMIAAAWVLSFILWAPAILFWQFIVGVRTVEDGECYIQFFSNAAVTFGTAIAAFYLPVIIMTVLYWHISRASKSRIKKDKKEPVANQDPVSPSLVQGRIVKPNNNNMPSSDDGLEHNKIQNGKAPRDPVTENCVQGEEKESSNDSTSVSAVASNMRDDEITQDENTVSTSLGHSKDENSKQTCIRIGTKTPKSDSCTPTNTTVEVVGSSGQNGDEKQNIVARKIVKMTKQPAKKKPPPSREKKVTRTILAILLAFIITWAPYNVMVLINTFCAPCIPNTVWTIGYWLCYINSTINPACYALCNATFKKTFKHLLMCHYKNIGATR
T1 sequence (P08172 whole entry): as above

SMILES: Cc1ncc(C)n2nc(-c3ccn4cc(-c5ccccc5)nc4n3)nc12 [CPL500036, 7-[5,8-Dimethyl-(1,2,4)triazolo (1,5-a)pyrazin-2-yl]-2-phenylimidazo (1,2-a) pyrimidine]
- bioavailability ([1]; Wistar rats, 3 mg/kg, p.o.): good bioavailability
- Kp ([1]; male, Wistar Han, brain/plasma, rat, 3 mg/kg oral gavage, mean ± SD, read-out: B/P (brain to plasma ratio)): 0.49 ± 0.06
- Cmax [1, 6]: 94.3 ± 28.5 ng/g
- Tmax [1, 6]: 6.8 ± 3.3 h
- AUC(0-t) [1, 6]: 844 ± 202 ng·h/mL
- Cmax [1, 7]: 238 ± 98.1 ng/mL
- Tmax [1, 7]: 5.8 ± 1.6 h
- half-life [1, 7]: 6.4 ± 6.2 h
- AUC(0-t) [1, 7]: 1620 ng·h/mL
- dose showing therapeutic activity [2]: 0.1 mg/kg
- inhibition at 1 µM [3]: -91.2%
- dose showing therapeutic activity [4]: 0.1 mg/kg
- IC50 [5]: 9.2 µM
- agonist-like behavior ([5]; agonistic mode, in presence of methoctramine, CHO cells, cAMP): didn’t trigger any agonist-like behavior

Reference: article PMC9681820, “A PDE10A inhibitor CPL500036 is a novel agent modulating striatal function devoid of most neuroleptic side-effects” (Frontiers in Pharmacology, 2022)
